{"source": "patent US20230114728A1", "about": "(Venatorx Pharmaceuticals, Inc., priority 2019, published 2023)", "key": {"[1]": {"test": "Bocillin-FL fluorescence polarization competition binding assay, A. baumannii PBP3", "details": "fluorescence polarization competition binding assay using Bocillin-FL; column 3; read-out: 4. baumannii PBP1a Potency", "from_the_text": "Example I: Experimental Method for Penicillin-Binding Protein Binding Assays with Bocillin-FL Via Fluorescence Polarization\nTo determine the ability of boronic acid-based test PBP inhibitors to bind Penicillin Binding Proteins (PBPs), Bocillin-FL (fluorescently-labeled penicillin V; ThermoFisher Scientific) was used in a fluorescence polarization (FP) competition binding assay to assess inhibitor binding to PBP2, PBP3 or PBP4 from Escherichia coli (K12), PBP3 from Pseudomonas aeruginosa (PA01), PBP1a, PBP2 and PBP3 from Acinetobacter baumannii (ATCC 19606), and PBP2 from Neiserria gonorrheae (FA19). PBPs were cloned and purified as described previously (E. coli PBPs, King, D. T, et al., ACS Infectious Diseases 2015, 1, 175-184; P. aeruginosa PBP3, Han et. al., PNAS 2010, 107 (51), 22002-22007; A. baumannii PBPs, Penwell et. al., Antimicrob. Agents Chemother. 2015, 59 (3), 1680-1689; N. gonorrhoeae PBP2, Singh et. al., J Biol. Chem. 2019, 294 (38), 14020-14032). To establish assay conditions for competition binding, enzyme titration/saturation binding experiments were initially performed. Bocillin-FL was prepared at 0.2 μM in a buffer comprised of 50 mM Hepes (pH 8.0), 300 mM NaCl and 5% (v/v) glycerol for reactions with E. coli, P. aeruginosa and N. gonorrhoeae PBPs, and 25 mM Tris (pH 8.0), 200 mM NaCl and 10% (v/v) glycerol and 0.005% (v/v) Tween 20 for reactions with A. baumannii PBPs. Saturation binding was performed by mixing 40 μl of PBP solutions ranging in concentrations from 0-24 μM with 40 μl of the 0.2 μM Bocillin-FL solution, in individual wells of a black 384-well microplate. FP was measured immediately upon mixing (Excitation, 490 nm; Emission, 520 nm; g-factor, 0.96), using a Cytation3 (BioTek) microplate reader and measured continuously for up to 120 minutes. […] The competition binding assay (80 μl final volume) was validated using beta-lactams and PBPs at final concentrations of: 1.5 μM, E. coli PBP3; 0.75 μM, P. aeruginosa PBP3; 1 μM A. baumannii PBP1a; 2.5 μM A. baumannii PBP2; 0.2 μM A. baumannii PBP3; and […] N. gonorrhoeae PBP2. Bocillin-FL was at 0.1 μM (0.05 μM with A. baumannii PBP1a) and beta-lactam concentrations ranged from 0-1000 μM. […] Bocillin-FL was added and the FP immediately measured for up to 60 minutes (90 minutes for E. coli PBP2). […] The beta-lactam potency was reported as the concentration of beta-lactam required to reduce the amount of PBP bound-Bocillin-FL by 50% (EC50). […] Binding assays for boronic acid PBP inhibitors were performed in an identical fashion for the respective PBPs"}, "[2]": {"system": "A. baumannii CDC-0045 producing TEM-1D, OXA-23, and OXA-69", "test": "Broth microdilution MIC in iron-depleted CAMHB (IDM)", "assay_type": "cell-based", "details": "Acinetobacter baumannii, read-out: Minimum Inhibitory Concentration, CDC-0045"}, "P. aeruginosa CDC-0110": {"system": "P. aeruginosa CDC-0110", "test": "Broth microdilution MIC in iron-depleted CAMHB (IDM)", "assay_type": "cell-based", "details": "Pseudomonas aeruginosa, CDC0110, read-out: Minimum Inhibitory Concentration, P. aeruginosa CDC-0110", "procedure": "(§1) To determine the ability of test compounds to inhibit the growth bacterial strains under conditions of iron-depletion, classic cell based broth microdilution minimum inhibitory concentration (MIC) assays were employed. MIC assays are performed according to CLSI methods except where otherwise noted (CLSI, 2018 and CLSI, 2019). The reference type strain E. coli ATCC 25922 was used to determine the ability of the PBP inhibitors to inhibit the growth of Enterobacteriaceae. Wild-type P. aeruginosa ATCC 27853, A. baumannii ATCC 17978 and A. baumannii ATCC 19606, along with the hyper-permeable P. aeruginosa ATCC 35151, an engineered efflux pump-compromised strain of P. aeruginosa (ΔmexAB-oprM), and an engineered efflux-pump compromised strain of A. baumannii IL123 (ABΔ3-ARAEcPore) were used to determine the ability of PBP inhibitors to penetrate the outer membrane of P. aeruginosa and A. baumannii and assess antibacterial activity against these important gram-negative organisms.\n(§2) Briefly, cryo-preserved bacterial cultures of challenge strains are streaked for isolation on appropriate agar medium, in this case cation-adjusted Mueller Hinton agar. Following incubation to allow growth of the colonies, plates are sealed with parafilm and stored refrigerated for up to two weeks. For preparation of assay inoculum and to ensure low variability, at least 5 colonies are picked from the agar plates with an inoculating loop and aseptically transferred to a culture tube containing 3 mL of iron-depleted cation-adjusted Mueller Hinton broth (IDM)—see below for IDM preparation. The broth culture is grown for 3-5 hours at 37° C. with shaking at 200 rpm. Meanwhile, 2-fold serial dilutions of test compounds are conducted in a 96-well plate with a final volume of 75 μL per well at 2-fold the final desired concentration. After the dilution plates are set up the growing cultures are then diluted in a cuvette containing IDM and the optical density is measured at 600 nm. The inoculum is diluted such that 75 μL of this culture in IDM results in a starting bacterial concentration of 2-8×10^5 CFU/mL when added to the dilution plates. The plates are incubated for 16-20 hours for Enterobacteriaceae and Pseudomonas and 20-24 hours for Acinetobacter at 37° C. The MIC values are read visually as the lowest concentration well with no bacterial growth.\n(§3) Method for Iron-Depleted Cation-Adjusted Mueller Hinton Broth (IDM) Preparation:\n(§4) • Prepare cation-adjusted Mueller Hinton broth as per the manufacturer's recommendations and autoclave. • Add 100 g/L Chelex 100 resin, cover with foil and incubate with stirring for 2 hours • Remove Chelex 100 resin by filtration with 0.45 μm filter flask • Add the following back to the medium: • CaCl2 dihydrate: 82.5 mg/L • MgCl2 hexahydrate: 94.1 mg/L • ZnSO4: 10 μM • Adjust pH of medium to 7.3 with 5 N HCl • Sterilize using a 0.22 µm filter flask"}, "[3]": {"system": "A. baumannii CDC-0036 OXA-65, and OXA-24", "test": "Broth microdilution MIC in iron-depleted CAMHB (IDM)", "assay_type": "cell-based", "details": "Acinetobacter baumannii, read-out: Minimum Inhibitory Concentration, CDC-0036", "procedure": "(§5) Example IV: In Vitro Antibacterial Assays in Iron-Depleted Cation-Adjusted Mueller-Hinton Broth\nas §1, §2, §3, §4"}, "A. baumannii ATCC 19606": {"system": "A. baumannii ATCC 19606", "test": "Broth microdilution MIC in iron-depleted CAMHB (IDM)", "assay_type": "cell-based", "details": "Acinetobacter baumannii, ATCC19606, read-out: Minimum Inhibitory Concentration, ATCC 19606", "procedure": "as §5, §1, §2, §3, §4"}, "A. baumannii ATCC 17978": {"system": "A. baumannii ATCC 17978", "test": "Broth microdilution MIC in iron-depleted CAMHB (IDM)", "assay_type": "cell-based", "details": "Acinetobacter baumannii, ATCC17978, read-out: Minimum Inhibitory Concentration, ATCC 17978", "procedure": "as §5, §1, §2, §3, §4"}, "[4]": {"system": "A. baumannii CDC-0083 producing NDM-1, PER-7, OXA-23, and OXA-69", "test": "Broth microdilution MIC in iron-depleted CAMHB (IDM)", "assay_type": "cell-based", "details": "Acinetobacter baumannii, read-out: Minimum Inhibitory Concentration, CDC-0083", "procedure": "as §5, §1, §2, §3, §4"}, "[5]": {"system": "P. aeruginosa (ΔmexAB-oprM)", "test": "Broth microdilution MIC in iron-depleted CAMHB (IDM)", "assay_type": "cell-based", "details": "Pseudomonas aeruginosa, read-out: Minimum Inhibitory Concentration, P. aeruginosa ΔmexAB-OprM", "procedure": "as §5, §1, §2, §3, §4"}, "P. aeruginosa ATCC 35151": {"system": "P. aeruginosa ATCC 35151", "test": "Broth microdilution MIC in iron-depleted CAMHB (IDM)", "assay_type": "cell-based", "details": "Pseudomonas aeruginosa, ATCC35151; iron-depleted MHB (IDM); hyper-permeable strain; read-out: Minimum Inhibitory Concentration, P. aeruginosa ATCC 35151", "procedure": "as §5, §1, §2, §3, §4"}, "P. aeruginosa ATCC 27853": {"system": "P. aeruginosa ATCC 27853", "test": "Broth microdilution MIC in iron-depleted CAMHB (IDM)", "assay_type": "cell-based", "details": "Pseudomonas aeruginosa, ATCC27853, read-out: Minimum Inhibitory Concentration, P. aeruginosa ATCC 27853", "procedure": "as §5, §1, §2, §3, §4"}, "[6]": {"system": "P. aeruginosa CDC-0054 producing VIM-4, OXA-50, and PAO", "test": "Broth microdilution MIC in iron-depleted CAMHB (IDM)", "assay_type": "cell-based", "details": "Pseudomonas aeruginosa, read-out: Minimum Inhibitory Concentration, P. aeruginosa CDC-0054", "procedure": "as §5, §1, §2, §3, §4"}, "[7]": {"system": "A. baumannii CDC-0033 producing NDM-1, and OXA-94", "test": "Broth microdilution MIC in iron-depleted CAMHB (IDM)", "assay_type": "cell-based", "details": "Acinetobacter baumannii, read-out: Minimum Inhibitory Concentration, CDC-0033", "procedure": "as §5, §1, §2, §3, §4"}}, "data": [{"smiles": "CS(=O)(=O)N1CCN(C(=O)N[C@@H](C(=O)N[C@H]2Cc3ccc(F)c(C(=O)O)c3OB2O)c2c(F)c(F)c(O)c(O)c2Cl)C1=O", "note": "[Example 229, (R)-3-((R)-2-(2-chloro-5,6-difluoro-3,4-dihydroxyphenyl)-2-(3-(methylsulfonyl)-2-oxoimidazolidine-1-carboxamido)acetamido)-7-fluoro-2-hydroxy-3,4-dihydro-2H-benzo[e][1,2]oxaborinine-8-carboxylic acid]", "values": [{"measurement": "EC50", "setting": "[1]", "result": "10 to 30", "unit": "µM"}, {"measurement": "MIC", "setting": "[2]", "result": "8 to 16", "unit": "µg/mL"}, {"measurement": "MIC", "setting": "P. aeruginosa CDC-0110", "result": "0.5 to 1", "unit": "µg/mL"}, {"measurement": "MIC", "setting": "[3]", "result": "2 to 4", "unit": "µg/mL"}, {"measurement": "MIC", "setting": "A. baumannii ATCC 19606", "result": "0.5 to 1", "unit": "µg/mL"}, {"measurement": "MIC", "setting": "A. baumannii ATCC 17978", "result": 0.25, "unit": "µg/mL"}, {"measurement": "MIC", "setting": "[4]", "result": "2 to 4", "unit": "µg/mL"}, {"measurement": "MIC", "setting": "[5]", "result": 0.25, "unit": "µg/mL"}, {"measurement": "MIC", "setting": "P. aeruginosa ATCC 35151", "result": 0.25, "unit": "µg/mL"}, {"measurement": "MIC", "setting": "P. aeruginosa ATCC 27853", "result": "0.5 to 1", "unit": "µg/mL"}, {"measurement": "MIC", "setting": "[6]", "result": "2 to 4", "unit": "µg/mL"}, {"measurement": "MIC", "setting": "[7]", "result": "2 to 4", "unit": "µg/mL"}]}]}
